Measurements: patent US20030065039A1, “Biologically active 1,3-bis-aromatic-prop-2-en-1-ones, 1,3-bis-aromatic-propan-1-ones, and 1,3-bis-aromatic-prop-2-yn-1-ones” (Statens Serum Institute, priority 1997, published 2003)
Where two headings read alike, the source gives them in different places. Marks after values point to notes of the source that are not given here.

How the values were obtained:
SDH (L. major) = test: Effect on succinate dehydrogenase of L. major promastigotes; assay type: biochemical, Leishmania major
Description: FIG. 10. Licochalocone A on SDH of L. major promastigotes (membrane rich fraction)

SDH (J774) = target: T1, SDH (J774) (Mus musculus, UniProt Q8K2B3); test: Effect on J774 cells succinate dehydrogenase; assay type: biochemical; conditions: incubation at 28° C. for 5 min
T1 construct: endogenous in cells; host or cells: J774 cells, membrane rich fraction

[1] = target: T2, Helicobacter pylori fumarate reductase (Helicobacter pylori, UniProt O06913); assay type: biochemical; conditions: Control 19.2 ± 2.5
T2 construct: Membrane associated proteins were solubilized from the pellet in 150 mM KCl, pH 7.0; endogenous in cells; host or cells: Helicobacter pylori 007 strain; KCl-solubilised fraction (or sonicate supernatant)
T2 sequence (O06913 1-714): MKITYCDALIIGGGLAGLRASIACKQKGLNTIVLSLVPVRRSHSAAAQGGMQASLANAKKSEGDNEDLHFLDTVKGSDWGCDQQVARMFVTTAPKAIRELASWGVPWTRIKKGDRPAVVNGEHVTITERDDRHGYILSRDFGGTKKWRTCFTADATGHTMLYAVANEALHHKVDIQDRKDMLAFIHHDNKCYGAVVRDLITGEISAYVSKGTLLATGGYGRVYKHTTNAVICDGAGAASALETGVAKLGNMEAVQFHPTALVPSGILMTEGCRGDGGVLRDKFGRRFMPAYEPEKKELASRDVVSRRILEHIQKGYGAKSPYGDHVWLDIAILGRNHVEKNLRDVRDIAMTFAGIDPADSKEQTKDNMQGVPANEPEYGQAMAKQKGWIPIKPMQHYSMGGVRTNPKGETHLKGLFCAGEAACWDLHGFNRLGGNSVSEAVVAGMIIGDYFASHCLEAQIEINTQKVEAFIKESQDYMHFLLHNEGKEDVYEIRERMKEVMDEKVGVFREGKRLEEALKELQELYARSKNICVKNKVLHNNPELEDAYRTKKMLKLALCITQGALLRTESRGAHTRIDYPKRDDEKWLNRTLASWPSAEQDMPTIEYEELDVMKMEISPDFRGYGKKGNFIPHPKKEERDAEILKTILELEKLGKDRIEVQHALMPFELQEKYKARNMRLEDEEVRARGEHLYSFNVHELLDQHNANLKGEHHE
T2 sequence (O06914 1-245 partner): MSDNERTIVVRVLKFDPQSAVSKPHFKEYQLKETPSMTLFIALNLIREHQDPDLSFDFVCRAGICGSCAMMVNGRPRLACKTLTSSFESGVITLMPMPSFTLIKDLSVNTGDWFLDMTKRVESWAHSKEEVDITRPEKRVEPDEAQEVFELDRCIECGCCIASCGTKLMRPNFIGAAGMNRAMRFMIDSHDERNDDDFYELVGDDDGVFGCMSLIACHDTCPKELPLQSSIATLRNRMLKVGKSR
T2 sequence (O06912 1-255 partner): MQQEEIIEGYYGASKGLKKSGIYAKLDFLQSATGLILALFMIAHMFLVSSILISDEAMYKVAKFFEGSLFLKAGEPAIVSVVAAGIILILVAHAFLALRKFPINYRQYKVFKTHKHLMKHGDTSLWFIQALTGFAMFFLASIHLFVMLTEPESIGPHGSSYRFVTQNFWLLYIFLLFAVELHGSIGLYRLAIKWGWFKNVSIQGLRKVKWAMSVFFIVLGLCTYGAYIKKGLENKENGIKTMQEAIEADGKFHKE
Procedure: 1) Extraction of soluble FRD: Bacteria were harvested by centrifugation at 18,000 g for 10 min at 4° C., and were washed 2 times in an isotonic phosphate saline buffer (50 mM sodium phosphate, pH 7.2, 90 mM NaCl, 5 mM Kcl). Bacteria were lysed in 5 mM Tris-HCl, pH 7.4, for 15 minutes, and centrifuged 18,000 g for 10 minutes. Membrane associated proteins were solubilized from the pellet in 150 mM KCl, pH 7.0, in ice bath for 60 min, and then the supernatant was collected after centrifugation (18,000 g for 10 minutes) for the measurement of FRD activity.
2) Extraction of FRD by sonication: Bacteria were harvested by centrifugation at 18,000 g for 10 min at 4° C., were sonicated, and then the supernatant was collected after centrifugation (18,000 g for 10 minutes) for the measurement of FRD activity.
NADH-FRD activity was determined as the rate of NADH-oxidation upon addition of 1 mM fumarate in the KCl-solubilized fraction or sonicated fraction. The reaction was monitored spectrophotometrically at 340 nm (∈=6.2 mM^−1 cm^−1) using 100 μM NADH and usually 3 mg protein in both reference and sample cuvettes. The measurement was carried out in a Shimadzu UV-190 double-beam spectrophotometer. Protein concentrations were determined using a Bio-Rad protein assay (Bio-Rad Laboratories, 200 Alfred Nobel Dr. Hercules, Calif. 94547, USA).
KCl solubilised fraction of bacteria was incubated with different concentrations of various oxygenated chalcones at 28° C. and the remaining FRD activity was measured. The IC50 values were determined as the concentration at which 50% of the activity was inhibited.

[2] = Single dose toxicity in rats; assay type: in vivo
Procedure: Also in rats, LDlow po>1000 mg/kg was found. Studies carried out later in the project using the dosing schedule, also used to measure effects against the malaria parasites, confirmed the very good oral tolerance to all compounds tested.

Reovirus-1 = test: Antiviral activity in Vero cell cultures; assay type: cell-based; conditions: Vero cells; values given as fractions
Procedure: (§1) IC50 values are determined by the virus plaque formation and/or the virus cytopathic assay using standard methods well-known in the art.
(§2) In the following is reported the results from a Vero cell culture infected with different viruses. The cell culture used as well as the methods applied are well known to a person skilled in the art.

Simliki forest virus = test: Antiviral activity in Vero cell cultures; assay type: cell-based; conditions: Vero cells; values given as fractions
Procedure: as §1, §2

Parainfluenza-3 Virus = test: Antiviral activity in Vero cell cultures; assay type: cell-based; conditions: Vero cells; values given as fractions
Procedure: as §1, §2

Coxsackie virus B4 = test: Antiviral activity in Vero cell cultures; assay type: cell-based; conditions: Vero cells; values given as fractions
Procedure: as §1, §2

Sindbis virus = test: Antiviral activity in Vero cell cultures; assay type: cell-based; conditions: Vero cells; values given as fractions
Procedure: as §1, §2

NDH (L. major) = test: Effect on L. major NADH dehydrogenase; assay type: biochemical, Leishmania major; conditions: incubation at 28° C.
Description: FIG. 11. Effect of licochalcone A on Leishmania major NADH dehhydrogenase. […] Data are mean ±SEM from 6 different experiments.

CHO cells = test: Chromosomal aberration assay with CHO cells; assay type: cell-based; conditions: both with and without metabolic activation (S9 mix)
[3] = compound 50 (unit not given), mean±SD, three experiments

T1 sequence (Q8K2B3 43-664): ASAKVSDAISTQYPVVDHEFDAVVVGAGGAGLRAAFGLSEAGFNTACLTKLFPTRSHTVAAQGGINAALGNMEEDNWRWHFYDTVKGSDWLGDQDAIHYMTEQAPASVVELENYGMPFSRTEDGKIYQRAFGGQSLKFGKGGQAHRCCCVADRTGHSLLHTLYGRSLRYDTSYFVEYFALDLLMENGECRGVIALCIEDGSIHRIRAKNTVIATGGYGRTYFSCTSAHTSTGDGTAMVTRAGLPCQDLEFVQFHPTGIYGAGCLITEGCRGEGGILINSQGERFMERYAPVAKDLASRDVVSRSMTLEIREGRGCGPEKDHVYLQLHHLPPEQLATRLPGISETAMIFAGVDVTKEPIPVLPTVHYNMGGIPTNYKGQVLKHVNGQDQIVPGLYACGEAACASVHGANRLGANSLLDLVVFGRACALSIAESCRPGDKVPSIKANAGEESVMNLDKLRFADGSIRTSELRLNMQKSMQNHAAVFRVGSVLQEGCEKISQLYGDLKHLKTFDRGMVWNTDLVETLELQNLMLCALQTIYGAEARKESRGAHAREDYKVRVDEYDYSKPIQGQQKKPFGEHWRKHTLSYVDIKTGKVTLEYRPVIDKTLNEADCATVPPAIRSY
T1 sequence (Q9CQA3 31-282 partner): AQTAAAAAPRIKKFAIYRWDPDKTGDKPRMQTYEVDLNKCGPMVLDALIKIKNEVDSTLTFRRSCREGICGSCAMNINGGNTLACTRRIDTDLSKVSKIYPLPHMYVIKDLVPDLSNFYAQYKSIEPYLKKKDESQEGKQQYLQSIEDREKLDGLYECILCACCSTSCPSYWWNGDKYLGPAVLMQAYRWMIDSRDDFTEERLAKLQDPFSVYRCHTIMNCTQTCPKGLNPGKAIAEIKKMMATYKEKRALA
T1 sequence (Q9CZB0 30-169 partner): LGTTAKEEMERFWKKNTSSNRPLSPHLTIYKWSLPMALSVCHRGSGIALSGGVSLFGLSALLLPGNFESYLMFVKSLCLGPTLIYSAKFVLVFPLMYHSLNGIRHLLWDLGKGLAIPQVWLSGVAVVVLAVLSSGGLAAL
T1 sequence (Q9CXV1 57-159 partner): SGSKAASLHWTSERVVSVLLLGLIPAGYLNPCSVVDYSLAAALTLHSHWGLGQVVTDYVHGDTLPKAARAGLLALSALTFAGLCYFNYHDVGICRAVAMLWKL

SMILES	inhibition (SDH (L. major); at 250 μg/mg protein)	IC50 (SDH (L. major); incubation at 28° C. for 5 min)	IC50 (SDH (J774))	FRD activity ([1]; compound 1 (unit not given))	FRD activity ([1]; compound 5 (unit not given))	FRD activity ([1]; compound 10 (unit not given))	FRD activity ([1]; compound 25 (unit not given))	FRD activity [1, 3]	LDlow po [2]	Minimum inhibitory concentration, Reovirus-1 (Reovirus-1)	Minimum inhibitory concentration, Simliki forest virus (Simliki forest virus)	Minimum inhibitory concentration, Parainfluenza-3 Virus (Parainfluenza-3 Virus)	Minimum inhibitory concentration, Coxsackie virus B4 (Coxsackie virus B4)	Minimum inhibitory concentration, Sindbis virus (Sindbis virus)	IC50 (NDH (L. major))	chromosomal aberration assay with CHO cells (CHO cells)
C=CC(C)(C)c1cc(/C=C/C(=O)c2ccc(O)cc2)c(OC)cc1O [Licochalcone A]	*29% inhibition at 250 μg/mg protein	>250* μg/mg protein	1122.2 μg/mg protein	14.5 ± 2.9 mu/mg of protein	6.8 ± 1.7 mu/mg of protein	2.5 ± 1.1 mu/mg of protein	0.9 ± 0.6 mu/mg of protein	0.0 mu/mg of protein	> 1000 mg/kg	<1/100	<1/100	<1/100	<1/100	1/600	415.1 μg/mg protein	
C=CCOc1ccc(C(=O)/C=C/c2cc(OC)cc(OC)c2)cc1 [SBC-35ma, 3,5-dimethoxy-4′-allyloxychalcone]										<1/100	<1/100	<1/100	<1/100	<1/100		clear clastogenic response
COc1cc(/C=C/C(=O)c2ccc([N+](=O)[O-])cc2)cc(OC)c1 [PH105, 4′-nitro-3,5-dimethoxychalcone]				15.8 ± 2.0 mu/mg of protein	8.5 ± 1.8 mu/mg of protein	4.1 ± 1.5 mu/mg of protein	1.7 ± 0.7 mu/mg of protein	0.0 mu/mg of protein								
